Measured values: patent US9549958B2, “Extracts of Cynanchum sp. and active ingredients contained therein in use of arthritis treatment” (INDUSTRIAL TECHNOLOGY RESEARCH INSTITUTE, priority 2011, dated 2017)
Values after ≈ are worked out from the molar mass of the structure shown.

How the values were obtained:
[1] = Weight changes in collagen-induced arthritis model; assay type: in vivo, rat; details: various doses of antofine and regimes (Groups 1-4), i.p., rats
Protocol: (§1) 50 μg of a fetus bovine type II collagen (CII, Chondrex) was emulsified in a complete Freund's adjuvant (CFA, Sigma). The ankle volume was measured as the basis of a hindpaw volume. On the eighth day after the primary immune, each rat was injected with 100 μg of the collagen emulsified in IFA (Sigma) to induce arthritis. The carrier control group was i.p. injected with 2 ml/kg of 0.5% CMC rats every two days until day 21. The experimental group was […] antofine isolated from Example 1 according to the following regimes: Group 1 was i.p. injected with 3 mg/kg of antofine every two days until Day 20 and then i.p. injected with 3 mg/kg of antofine per day on Day 21˜23; Group 2 was i.p. injected with 3 mg/kg of antofine every three days until Day 20 and then i.p. injected with 3 mg/kg of antofine per day on Day 21˜23; Group 3 was i.p. injected with 2 mg/kg of antofine every two days until Day 20 and then i.p. injected with 3 mg/kg of antofine per day on Day 21˜23; Group 4 was i.p. injected with 3 mg/kg of antofine per day for 5 days, and then stop administration on the next nine days, and i.p. injected with 3 mg/kg of antofine per day on Day 21˜23.; and All rats were scarified on Day 24.

TNF-α = TNF-α inhibition in LPS-stimulated activated U937 cells (ELISA); assay type: cell-based; details: Homo sapiens, U-937, Example 3
Protocol: A human myeloid leukemia cell line U937 (Rockville, Md.) was obtained from ATCC. The cell line was cultured in a RPMI 1640 medium with a 10% fetal calf serum (FCS) at 37° C., 5% CO2. The cell line maintained in exponential growth. For inducing differentiation, the cells with a starting concentration of 4×10^5 cell/ml were cultured in T150 containing 50 ng/ml PMA (Sigma) for 24 hours. Subsequently, the cells were moved to a fresh medium without PMA and cultured for 48 hours. The cells were collected with rubber policeman (Bellco Glass, Vineland, N.J.) gently scraping the medium bottle for the next step.
The activated U937 cells were seeded into a 96-well plate to form a concentration of 1.6×10^5 cell/well. The ethanol extracts of Cynanchum hancockianum in different concentrations were respectively added 10 μl to the 96-well plate. The final volume of each well was 190 μl. The plate was cultured at 37° C., 5% CO2 for 30 min. Then each well was added 2 μg/ml of lipopolysaccharide (LPS) in PBS 10 μl and cultured at 37° C. for 4 hours. […] The amount of TNF-α was analyzed by an ELISA (TNF-α duoset, R&D, Minneapolis, Minn.). […]
The activated U937 cells obtained from Example 2 were seeded into a 96-well plate to form a concentration of 1.6×10^5 cell/well. […] The amount of TNF-α was analyzed by an ELISA and cell viability was tested by MTT. […]

[2] = tested on: collagen-induced arthritis model; test: Collagen-induced arthritis model, morbidity and onset; assay type: in vivo, rat
Protocol: as §1

COc1ccc2c3c(c4cc(OC)c(OC)cc4c2c1)C[C@H]1CCCN1C3 [antofine, (−)-antofine]
Weight changes [1]: not greatly changed | IC50 (TNF-α): 7 ng/mL (≈ 0.0193 µM) | Morbidities and onset of arthritis ([2]; Group 1: 3 mg/kg i.p. every two days until Day 20, then 3 mg/kg per day on Day 21-23): decreased morbidities and delayed onsets | Morbidities and onset of arthritis ([2]; Group 4: 3 mg/kg i.p. per day for 5 days, stop nine days, 3 mg/kg per day on Day 21-23): decreased morbidities and delayed onsets
